TGI data for 14 compounds are collected here from PubChem BioAssay (NCI).

Among the test systems are SNB-19 CNS; NCI-H23 lung; SK-MEL-5 melanoma; SN12C renal; SF-268 CNS; HCT-15 colon; M14 melanoma; DU-145 prostate; HT29 colon; UACC-62 melanoma.
Common to all, as to test: NCI anticancer screen, dose series, 48 h

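Five compound concentrations were applied to cells in 96-well plates for 48 hours; endpoints were derived by simple linear interpolation of the resulting dose-response curve. TGI: concentration producing complete growth inhibition.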

Take `C1CC2=C(C1)[Se]C(=C1Sc3nsnc3S1)[Se]2`: the TGI with SNB-19 CNS, in the experiment on NCI-H23 lung, with SK-MEL-5 melanoma, with SN12C renal, in the experiment with SF-268 CNS and with HCT-15 colon was greater than 100 µM in each case. Besides, the TGI with M14 melanoma, with DU-145 prostate, in the experiment with HT29 colon and with UACC-62 melanoma was greater than 100 µM in each case.
With `Nc1nc2c(=O)c3ccccc3sc2s1`, the TGI in the experiment with SNB-19 CNS, in the experiment with NCI-H23 lung, in the experiment on SK-MEL-5 melanoma, in the experiment with SN12C renal, with SF-268 CNS and with HCT-15 colon was greater than 100 µM each time. Also, the TGI in the experiment on M14 melanoma is greater than 100 µM; with DU-145 prostate, greater than 100 µM; in the experiment with HT29 colon, greater than 100 µM; with UACC-62 melanoma, 84 µM.
As to `C=CCNC(=S)Nc1sc2c(c1C(=O)OCC)CC(C)CC2` (stereo not given), the TGI was 62.5 µM in the experiment on SNB-19 CNS; greater than 100 µM with NCI-H23 lung; 30.7 µM in the experiment with SK-MEL-5 melanoma; 82.8 µM in the experiment with SN12C renal; greater than 100 µM in the experiment with SF-268 CNS; greater than 100 µM in the experiment with HCT-15 colon. Moreover, the TGI in the experiment with M14 melanoma is 49.9 µM; with DU-145 prostate it was greater than 100 µM; in the experiment with HT29 colon it was 47.1 µM; in the experiment on UACC-62 melanoma it was 46.7 µM.
As for `C/C=C/[C@@]1(OC(=O)c2ccccc2)C[C@@H]2CCCC[C@@H]21`, the TGI in the experiment on SNB-19 CNS is 31.6 µM; in the experiment with NCI-H23 lung, 31 µM; with SK-MEL-5 melanoma, 29.3 µM; in the experiment with SN12C renal, 36.7 µM; with SF-268 CNS, 32.4 µM; in the experiment on HCT-15 colon, 36.9 µM. The TGI is 32.3 µM in the experiment with M14 melanoma, 31.4 µM in the experiment with DU-145 prostate, 31.7 µM with HT29 colon and 32.9 µM in the experiment on UACC-62 melanoma.
Consider `CN(C)CCNc1ccc(C(=O)NCCCN(C)CCCNC(=O)c2ccc(NCCN(C)C)c3c(=O)c4ccccc4[nH]c23)c2[nH]c3ccccc3c(=O)c12`, for which the TGI worked out at 1.92 µM with SNB-19 CNS; 2.78 µM with NCI-H23 lung; 1.06 µM with SK-MEL-5 melanoma; 1.02 µM with SN12C renal; 0.544 µM in the experiment on SF-268 CNS; 38.5 µM in the experiment with HCT-15 colon. Also, the TGI is 1.53 µM in the experiment with M14 melanoma, 2.48 µM in the experiment with DU-145 prostate, 0.903 µM in the experiment on HT29 colon and 0.776 µM in the experiment with UACC-62 melanoma.
For `O=c1[nH]c(=O)n(C2CC(O)C(CO)O2)cc1I` (stereo not given), the TGI in the experiment on SNB-19 CNS, in the experiment on NCI-H23 lung, in the experiment with SK-MEL-5 melanoma, with SN12C renal, in the experiment on SF-268 CNS and in the experiment with HCT-15 colon was greater than 100 µM throughout. Also, the TGI in the experiment on M14 melanoma, with DU-145 prostate, in the experiment with HT29 colon and with UACC-62 melanoma was greater than 100 µM in each case.
For the compound `O=C1c2ccccc2C2CNC1(O)c1ccccc12` (stereo not given), the TGI with SNB-19 CNS, in the experiment with NCI-H23 lung, in the experiment on SK-MEL-5 melanoma, with SN12C renal, in the experiment on SF-268 CNS and in the experiment on HCT-15 colon was greater than 100 µM in each case. Besides, the TGI in the experiment on M14 melanoma, with DU-145 prostate, with HT29 colon and in the experiment with UACC-62 melanoma was greater than 100 µM throughout.
For `CC(C)(C)OC(=O)CN1CCNCCNCC1`, the TGI in the experiment on SNB-19 CNS, in the experiment on NCI-H23 lung, with SK-MEL-5 melanoma, in the experiment with SN12C renal, with SF-268 CNS and in the experiment with HCT-15 colon was greater than 100 µM in each case. Moreover, the TGI with M14 melanoma, with DU-145 prostate, in the experiment on HT29 colon and in the experiment with UACC-62 melanoma was greater than 100 µM each time.
For `O=C(O)c1ccccc1.[Ag]`, the TGI in the experiment on SNB-19 CNS was greater than 100 µM; with NCI-H23 lung, 54.5 µM; in the experiment with SK-MEL-5 melanoma, 19.5 µM; with SN12C renal, 51 µM; with SF-268 CNS it was 50.1 µM; with HCT-15 colon, 49.5 µM. In addition, the TGI in the experiment on M14 melanoma is 36 µM; in the experiment with DU-145 prostate it was 32.1 µM; in the experiment on HT29 colon, 43.7 µM; with UACC-62 melanoma, 32.3 µM.
Take `O=C(c1ccccc1)c1ccc2c(c1)nc1n2C(c2c(Cl)cccc2Cl)SC1` (stereo not given): the TGI in the experiment on SNB-19 CNS, in the experiment on NCI-H23 lung, with SK-MEL-5 melanoma, in the experiment with SN12C renal, in the experiment on SF-268 CNS and with HCT-15 colon was greater than 100 µM throughout. For the same compound, the TGI with M14 melanoma, in the experiment on DU-145 prostate, in the experiment on HT29 colon and in the experiment on UACC-62 melanoma was greater than 100 µM each time.
With `CCOC(=O)c1cnc(-n2[nH]c(C)c(CCO)c2=O)[nH]c1=O`, the TGI in the experiment with SNB-19 CNS, in the experiment on NCI-H23 lung, with SK-MEL-5 melanoma, with SN12C renal, in the experiment with SF-268 CNS and in the experiment on HCT-15 colon was greater than 100 µM each time. Moreover, the TGI in the experiment with M14 melanoma, in the experiment on DU-145 prostate, in the experiment on HT29 colon and in the experiment with UACC-62 melanoma was greater than 100 µM throughout.
Turning to `CC1(C)O[C@H]2Cn3c(c(C#N)c4ccccc43)[C@H]2O1`, the TGI in the experiment on SNB-19 CNS, in the experiment on NCI-H23 lung, in the experiment on SK-MEL-5 melanoma, in the experiment with SN12C renal, with SF-268 CNS and in the experiment with HCT-15 colon was greater than 100 µM in each case. In addition, the TGI in the experiment with M14 melanoma, in the experiment on DU-145 prostate, in the experiment with HT29 colon and with UACC-62 melanoma was greater than 100 µM each time.
`O=C1Oc2ccccc2C(=O)/C1=C/N1C(=O)N/C(=C\c2ccccc2O)C1=O`: the TGI with SNB-19 CNS, with NCI-H23 lung, with SK-MEL-5 melanoma, with SN12C renal, with SF-268 CNS and in the experiment on HCT-15 colon was greater than 100 µM each time. Also, the TGI with M14 melanoma, with DU-145 prostate, with HT29 colon and in the experiment on UACC-62 melanoma was greater than 100 µM in each case.
With `C=C(C)[C@@]1(O)O[C@H]2C[C@@]3(C)OC(=CC3=O)/C(C)=C\[C@@H]3OC(=O)[C@@]1(C)[C@H]32`, the TGI with SNB-19 CNS is greater than 100 µM; in the experiment with NCI-H23 lung, greater than 31.6 µM; in the experiment with SK-MEL-5 melanoma, 30.5 µM; in the experiment on SN12C renal, 34.9 µM; in the experiment with SF-268 CNS, 88.2 µM; in the experiment on HCT-15 colon it was 44 µM. Further, the TGI in the experiment on M14 melanoma was 37.5 µM; in the experiment with DU-145 prostate, greater than 100 µM; with HT29 colon, 40.9 µM; with UACC-62 melanoma it was 35.7 µM.
